Test results as given in US9434822B2, “Block copolymer, micelle preparation, and anticancer agent containing the same as active ingredient” (Nippon Kayaku Kabushiki Kaisha, priority 2004, dated 2016).

Tests used:
female CDF1 mice = assay: Observation of peripheral nerve damage to mice (stretch reflex); assay type: in vivo, mouse; settings: 30 mg/kg in terms of paclitaxel, i.v. for 5 consecutive days, hind limb
Procedure: The micelle preparation of the present invention, or paclitaxel alone, was administered via a mouse caudal vein to female CDF1 mice for 5 consecutive days, and the stretch reflex of the mouse hind limb was observed as an indicator of the peripheral nerve damage caused by paclitaxel. Each drug was prepared in the same manner as in Test Example 2 (in vivo antitumor effect on Colon 26). The dose was 30 mg/kg in terms of paclitaxel.

[1] = system: Mouse colon cancer Colon 26 cells; assay: In vivo antitumor effect on Colon 26; settings: i.v. 3 times at 4-day intervals, Day 11 after administration
Procedure: Mouse colon cancer Colon 26 cells were transplanted subcutaneously in the back of female CDF1 mouse, and after the volume of the tumor reached about 100 mm^3, the micelle preparation of Example 4, or paclitaxel alone as the control drug, was administered via a mouse caudal vein into the mouse 3 times at 4-day intervals, to examine the effect thereof on advanced cancer. The micelle preparation had been diluted with 5% glucose solution to form a solution containing paclitaxel at a concentration of 3 mg/mL. Paclitaxel for use as the sole regimen was dissolved in ethanol and mixed with an equal volume of Cremophor (manufactured by Sigma) to prepare a solution containing paclitaxel at a concentration of 30 mg/mL, and the resulting preparation was diluted with physiological saline to 3 mg/mL just before administration. The antitumor effect of each drug was judged in percentage (T/C %) of the average tumor volume of the group which was given the drug on Day 11 after administration, relative to the average tumor volume of the group which was not given the drug. A lower numerical value is indicative of higher effect.

[2] = Paclitaxel levels in mouse tumor; assay type: in vivo; settings: female, CDF1, mouse, tumor (Colon 26), intravenous, 50 mg/kg i.v., Colon 26 tumor
Procedure: (§1) Each drug was prepared according to the same method as in Test Example 2 (in vivo antitumor effect on Colon 26). A micelle preparation containing paclitaxel, or paclitaxel alone, each at a dose level of 50 mg/kg, was administered via a mouse caudal vein into female CDF1 mouse transplanted with mouse colon cancer Colon 26 in the back, and after a predetermined time, whole blood was collected through an armpit artery. 0.01 mL of plasma obtained by centrifugation was deproteinized (3 times) with 0.2 mL of water and 1 mL of acetonitrile and then subjected to liquid/liquid extraction by adding 2 mL of t-butyl methyl ether. The organic layer was recovered, evaporated into dryness, dissolved in 0.4 mL of dissolving liquid for HPLC, and measured for its paclitaxel concentration by HPLC. Separately, the tumor was homogenized with 0.5% acetic acid to prepare 1% tumor homogenate, and 0.1 mL of 1% tumor homogenate was deproteinized (3 times) with 0.1 mL of water and 1 mL of acetonitrile and subjected to liquid/liquid extraction by adding 2 mL of t-butyl methyl ether. The organic layer was concentrated and dissolved in 0.4 mL of dissolving liquid for HPLC and measured for its paclitaxel concentration by HPLC.

[3] = Paclitaxel levels in mouse plasma; assay type: in vivo; settings: female, intravenous, 50 mg/kg i.v., Colon 26-bearing CDF1 mice
Procedure: as §1

concentration at 0.083 h ([2]; 0.083 hours): 7370 ng/mL
concentration at 0.5 h ([2]; 0.5 hours): 10000 ng/mL
concentration at 2 h ([2]; 2 hours): 12500 ng/mL
concentration at 6 h ([2]; 6 hours): 5790 ng/mL
concentration at 24 h ([2]; 24 hours): 1250 ng/mL
concentration at 0.083 h ([3]; 0.083 hours): 59300 ng/mL
concentration at 0.5 h ([3]; 0.5 hours): 31900 ng/mL
concentration at 2 h ([3]; 2 hours): 14800 ng/mL
concentration at 6 h ([3]; 6 hours): 710 ng/mL
Compound: CC(=O)O[C@H]1C(=O)[C@@]2(C)[C@H]([C@H](OC(=O)c3ccccc3)[C@]3(O)C[C@H](OC(=O)[C@H](O)[C@@H](NC(=O)c4ccccc4)c4ccccc4)C(C)=C1C3(C)C)[C@]1(OC(C)=O)CO[C@@H]1C[C@@H]2O [Paclitaxel alone, paclitaxel]
Mice with loss of stretch reflex (female CDF1 mice): 3/3
Mice with loss of stretch reflex (female CDF1 mice; listed as paclitaxel alone): recognized to lose stretch reflex in every mouse
T/C % (average tumor volume relative to group not given the drug) ([1]; dose 50 mg/kg): 81.6%
T/C % (average tumor volume relative to group not given the drug) ([1]; dose 100 mg/kg): 52.6%
